These results are taken from PMC10478824, “Development of FAPI Tetramers to Improve Tumor Uptake and Efficacy of FAPI Radioligand Therapy” (Journal of Nuclear Medicine, 2023).

Data set [1] addresses T1, FAP (FAP-positive HT-1080-FAP cells) (Homo sapiens, UniProt Q12884).
T1 construct: expressed in transfected cells; host or cells: HT-1080 human fibrosarcoma cells, stably transfected (HT-1080-FAP)
T1 sequence (Q12884 1-760): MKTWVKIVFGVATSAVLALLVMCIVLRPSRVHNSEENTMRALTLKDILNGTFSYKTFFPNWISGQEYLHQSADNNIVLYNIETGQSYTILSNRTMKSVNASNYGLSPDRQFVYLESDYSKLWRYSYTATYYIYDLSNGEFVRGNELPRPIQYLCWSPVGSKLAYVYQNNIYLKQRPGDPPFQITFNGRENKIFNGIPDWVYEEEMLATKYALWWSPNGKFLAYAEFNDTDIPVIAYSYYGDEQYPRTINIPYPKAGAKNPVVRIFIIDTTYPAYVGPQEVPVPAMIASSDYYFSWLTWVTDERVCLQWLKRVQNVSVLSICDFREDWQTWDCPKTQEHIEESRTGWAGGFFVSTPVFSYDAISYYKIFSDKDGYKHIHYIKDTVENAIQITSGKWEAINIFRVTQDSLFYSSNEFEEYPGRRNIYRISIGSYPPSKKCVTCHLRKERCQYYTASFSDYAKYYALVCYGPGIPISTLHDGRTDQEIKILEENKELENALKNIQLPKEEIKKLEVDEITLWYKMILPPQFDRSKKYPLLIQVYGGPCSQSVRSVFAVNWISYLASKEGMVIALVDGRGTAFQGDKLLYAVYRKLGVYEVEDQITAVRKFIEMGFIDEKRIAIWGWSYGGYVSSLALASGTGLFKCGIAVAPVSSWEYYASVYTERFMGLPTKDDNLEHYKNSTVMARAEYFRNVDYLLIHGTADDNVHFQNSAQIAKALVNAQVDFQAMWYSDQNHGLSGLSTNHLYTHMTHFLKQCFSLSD
Put plainly: Competitive cell-binding assay against ^68Ga-FAPI-46. Conditions: competition with ^68Ga-FAPI-46, 60 min, read-out: 50% inhibitory concentration. Here is the method: A human fibrosarcoma cell line was stably transfected with FAP (HT-1080-FAP) and cultured, as previously described ([15]). A human glioblastoma cell line (U87MG, from the Chinese National Infrastructure of Cell Line Resource) was cultured in Dulbecco modified Eagle medium (Thermo Fischer Scientific) supplemented with 10% fetal bovine serum (Thermo Fisher Scientific). HT-1080-FAP cells were seeded in 24-well plates using RPMI 1640 medium with 10% fetal bovine serum, and the medium was replaced with fresh medium without fetal bovine serum when the cells reached 80%–90% density. ^68Ga-FAPI-46, ^68Ga-DOTA-2P(FAPI)2, ^68Ga-DOTA-4P(FAPI)4, or ^68Ga-DOTA-4P(FAPI)4 with 11.3 nmol of unlabeled FAPI-46 (for the blocking experiment) were added to the 24-well plates and incubated for 60, 90, and 120 min. For the competitive cell-binding assay, a gradient concentration (5.6 × 10^−13 to 10^−5 M) of FAPI-46, DOTA-2P(FAPI)2, or DOTA-4P(FAPI)4 was added to the cells and incubated with ^68Ga-FAPI-46 for 60 min. […] The radioactivity (counts per minute) was determined with a γ-counter (WIZARD^2 2480; PerkinElmer Inc.). […] The 50% inhibitory concentrations were determined by fitting a nonlinear regression model to the data using Prism software, version 8 (GraphPad Software Inc.).

The nature of data set [2]: In vitro stability in phosphate-buffered saline and fetal bovine serum (radio-HPLC). The data set is classed as in vitro ADME. The note with it: 4 h incubation in phosphate-buffered saline and fetal bovine serum.
The subject of another data set is U87MG tumors. Put plainly: Small-animal static PET in U87MG tumor-bearing mice. The data set is classed as in vivo. The procedure: (§1) All animal experimental procedures were approved by the Animal Care and Ethics Committee of Xiamen University and performed in accordance with the Guidelines for the Care and Use of Animals of the Xiamen University Laboratory Animal Center. For in vivo experiments, 6-wk-old BALB/c nude mice (Beijing Vital River Laboratory Animal Technology Co., Ltd.) were subcutaneously inoculated with HT-1080-FAP or U87 cells (5 × 10^6 in 100 μL of phosphate-buffered saline) in the right shoulder.
(§2) Dynamic PET, static PET (with or without competition), and SPECT scans with radiolabeled monomeric, dimeric, and tetrameric FAPIs were performed on HT-1080-FAP tumor–bearing mice for pharmacokinetic evaluation. Additionally, static PET with ^68Ga-labeled monomeric, dimeric, and tetrameric FAPIs was performed and compared in U87MG tumor–bearing mice.
Approximately 7.4 MBq of ^68Ga-DOTA-4P(FAPI)4 was intravenously injected into HT-1080-FAP tumor–bearing mice (n = 3) for the 60-min dynamic PET. For multiple-time-point static PET (0.5, 1, 2, and 4 h after injection), 7.4 MBq of ^68Ga-FAPI-46, ^68Ga-DOTA-2P(FAPI)2, or ^68Ga-DOTA-4P(FAPI)4 were injected into HT-1080-FAP and U87MG tumor–bearing mice (3/group). For longer-term observation, HT-1080-FAP tumor–bearing mice were intravenously injected with 7.4 MBq of ^64Cu-NOTA-2P(FAPI)2 or ^64Cu-NOTA-4P(FAPI)4 (3/group). […]

For the next data set, the system named is HT-1080-FAP tumors. Put plainly: Small-animal PET in HT-1080-FAP tumor-bearing mice. Format: in vivo. The procedure: as §1, §2
Approximately 7.4 MBq of ^68Ga-DOTA-4P(FAPI)4 was intravenously injected into HT-1080-FAP tumor–bearing mice (n = 3) for the 60-min dynamic PET. For multiple-time-point static PET (0.5, 1, 2, and 4 h after injection), 7.4 MBq of ^68Ga-FAPI-46, ^68Ga-DOTA-2P(FAPI)2, or ^68Ga-DOTA-4P(FAPI)4 were injected into HT-1080-FAP and U87MG tumor–bearing mice (3/group). For longer-term observation, HT-1080-FAP tumor–bearing mice were intravenously injected with 7.4 MBq of ^64Cu-NOTA-2P(FAPI)2 or ^64Cu-NOTA-4P(FAPI)4 (3/group). For the in vivo blocking experiment, PET imaging was performed 1 h after the simultaneous administration of 30 nmol of unlabeled FAPI-46 and 7.4 MBq of ^68Ga-DOTA-4P(FAPI)4.

The subject of a further data set is HT-1080-FAP cells. Put plainly: Cell uptake and blocking experiment. Format: cell-based, human. The note with it: 120 min. The procedure: A human fibrosarcoma cell line was stably transfected with FAP (HT-1080-FAP) and cultured, as previously described ([15]). A human glioblastoma cell line (U87MG, from the Chinese National Infrastructure of Cell Line Resource) was cultured in Dulbecco modified Eagle medium (Thermo Fischer Scientific) supplemented with 10% fetal bovine serum (Thermo Fisher Scientific). HT-1080-FAP cells were seeded in 24-well plates using RPMI 1640 medium with 10% fetal bovine serum, and the medium was replaced with fresh medium without fetal bovine serum when the cells reached 80%–90% density. ^68Ga-FAPI-46, ^68Ga-DOTA-2P(FAPI)2, ^68Ga-DOTA-4P(FAPI)4, or ^68Ga-DOTA-4P(FAPI)4 with 11.3 nmol of unlabeled FAPI-46 (for the blocking experiment) were added to the 24-well plates and incubated for 60, 90, and 120 min. For the competitive cell-binding assay, a gradient concentration (5.6 × 10^−13 to 10^−5 M) of FAPI-46, DOTA-2P(FAPI)2, or DOTA-4P(FAPI)4 was added to the cells and incubated with ^68Ga-FAPI-46 for 60 min. Similarly, a gradient concentration (5.4 × 10^−13 to 10^−5 M) of NOTA-2P(FAPI)2 or NOTA-4P(FAPI)4 was added to the cells and incubated with ^68Ga-FAPI-46 for 60 min. After each step, the cells were washed twice with phosphate-buffered saline (1 mL) and lysed with 1 M NaOH (0.5 mL). The radioactivity (counts per minute) was determined with a γ-counter (WIZARD^2 2480; PerkinElmer Inc.). All experiments were independently repeated 3 times. The 50% inhibitory concentrations were determined by fitting a nonlinear regression model to the data using Prism software, version 8 (GraphPad Software Inc.).

Consider `CN(CCCN1CCN(C(=O)COCCOCCOCCNC(=O)CCC(=O)NCCCC[C@H](NC(=O)CCC(=O)NCCOCCOCCOCC(=O)N2CCN(CCCN(C)c3ccc4nccc(C(=O)NCC(=O)N5CC(F)(F)C[C@H]5C#N)c4c3)CC2)C(=O)NCCCC[C@H](NC(=O)[C@H](CCCCNC(=O)CN2CCN(CC(=O)O)CCN(CC(=O)O)CCN(CC(=O)O)CC2)NC(=O)CCC(=O)NCCOCCOCCOCC(=O)N2CCN(CCCN(C)c3ccc4nccc(C(=O)NCC(=O)N5CC(F)(F)C[C@H]5C#N)c4c3)CC2)C(=O)NCCOCCOCCOCC(=O)N2CCN(CCCN(C)c3ccc4nccc(C(=O)NCC(=O)N5CC(F)(F)C[C@H]5C#N)c4c3)CC2)CC1)c1ccc2nccc(C(=O)NCC(=O)N3CC(F)(F)C[C@H]3C#N)c2c1` [DOTA-4P(FAPI)4], for which the IC50 in data set [1] is 15.6 nM.
Still for that read-out and setting: in the case of `CN(CCCN1CCN(C(=O)CN2CCN(CC(=O)O)CCN(CC(=O)O)CCN(CC(=O)O)CC2)CC1)c1ccc2nccc(C(=O)NCC(=O)N3CC(F)(F)C[C@H]3C#N)c2c1` [FAPI-46, reference compound] it was 11.4 nM.
For the compound `CN(CCCN1CCN(C(=O)COCCOCCOCCNC(=O)CCC(=O)NCCCC[C@H](NC(=O)CCC(=O)NCCOCCOCCOCC(=O)N2CCN(CCCN(C)c3ccc4nccc(C(=O)NCC(=O)N5CC(F)(F)C[C@H]5C#N)c4c3)CC2)C(=O)NCCCC[C@H](NC(=O)[C@H](CCCCNC(=O)CN2CCN(CC(=O)[O-])CCN(CC(=O)[O-])CCN(CC(=O)[O-])CC2)NC(=O)CCC(=O)NCCOCCOCCOCC(=O)N2CCN(CCCN(C)c3ccc4nccc(C(=O)NCC(=O)N5CC(F)(F)C[C@H]5C#N)c4c3)CC2)C(=O)NCCOCCOCCOCC(=O)N2CCN(CCCN(C)c3ccc4nccc(C(=O)NCC(=O)N5CC(F)(F)C[C@H]5C#N)c4c3)CC2)CC1)c1ccc2nccc(C(=O)NCC(=O)N3CC(F)(F)C[C@H]3C#N)c2c1.[68Ga+3]` [^68Ga-DOTA-4P(FAPI)4], the figures for the “in vitro stability (demetallation / free radioactivity)” value in data set [2] and in data set [2] (listed as 68Ga-DOTA-4P[FAPI]4) were “highly stable” and “neither significant demetallation nor free radioactivity was observed”, respectively. Further, in the data set with U87MG tumors (PET 0.5-4 h after injection), the washout from tumor result was “minimal”. For the same compound, the “tumor uptake SUVmean” value in the data set with U87MG tumors (PET, 1 h after injection) stood at 0.72 ± 0.02; in the data set on HT-1080-FAP tumors (HT-1080-FAP tumors, PET, 4 h after injection), 1.99 ± 0.09. Also, the elimination route entry in the data set on HT-1080-FAP tumors (HT-1080-FAP tumor-bearing mice, PET) was “eliminated predominantly through the kidneys and bladder”. Besides, the “reduction in tumor uptake by blocking” value in the data set with HT-1080-FAP tumors (HT-1080-FAP tumors, 1 h after injection, unlabeled FAPI-46) is on record as 92%. Moreover, the “tumor uptake SUVmean without blocking” value in the data set on HT-1080-FAP tumors (HT-1080-FAP tumors, PET, 1 h after injection) was determined as 1.87 ± 0.08. Moreover, in the data set with HT-1080-FAP tumors (HT-1080-FAP tumors, PET, 1 h after injection, coinjection of 30 nmol unlabeled FAPI-46), the “tumor uptake SUVmean with blocking” value was determined as 0.16 ± 0.03. Also, in the data set on HT-1080-FAP tumors (HT-1080-FAP tumors, static PET up to 4 h after injection), the “course of tumor uptake over time” value is “tumor uptake remained constant up to 4 h after injection”. In the data set on HT-1080-FAP cells, the cell uptake is recorded as 57.98% ± 0.27%. Also, the “reduction of cell uptake by blocking” value with HT-1080-FAP cells (unlabeled FAPI-46) was 97%. Further, the “cell uptake with blocking” value in the data set on HT-1080-FAP cells (with 11.3 nmol unlabeled FAPI-46) is 1.79% ± 0.97%.
